Reference: US20260375265A1, “COMPOSITION FOR ALLEVIATING SKIN PIGMENTATION” (LG H & H CO., LTD., priority 2023, published 2026)
Where a name gives a salt, the structure may show the parent alone. Read-outs that look alike come from different tables or passages of the source.

Legend:
PPARGC1B [1] = assay: qPCR of PPARGC1B mRNA expression in a-MSH-treated B16F10 cells; format: cell-based, mouse; conditions: B16F10, 10 nM a-MSH plus substance, one day, appropriate concentration; FIG. 3
Protocol: (§1) Screening was performed for substances that influence the expression of genes associated with spot pigmentation among various substances having the skin-improving efficacy. Changes in the expression of genes associated with spot pigmentation were examined in cells where melanin synthesis was increased by a-MSH, and substances that restored the expression to the level before a-MSH treatment were selected.
(§2) Mouse melanoma cells (B16F10; CRL-6475) were purchased from ATCC for use. The purchased cells were cultured in a 37 °C/5% CO2 incubator using a medium prepared by supplementing Dulbecco's Modified Eagle Medium (DMEM-GIBCO) with 10% fetal bovine serum (FBS) and 1% penicillin/streptomycin.
(§3) To analyze the efficacy on changes in the mRNA expression of genes associated with skin spot pigmentation, mouse melanoma cells were seeded at […] cells/well in 6-well plates and cultured in a 37 °C/5% CO2 incubator for one day. After replacing the medium with a fresh medium, 10 nM α-MSH was treated, and substances were added to the medium at appropriate concentrations and cultured for one day under the same conditions. Thereafter, total RNA was obtained using AccuPrep Universal RNA Extraction Kit (Bioneer, K-3140), and cDNA was synthesized using AccuPower® RocketScript™ Cycle (Bioneer, K-2202). The expression level of each gene was analyzed by performing qPCR using synthesized cDNA and taqman probe (assay ID: ASCL2-Mm01268891_m1, PPARGC1B-Mm00504730_m1, TP63-Hs00978349_m1).

TP63 = assay: qPCR of TP63 mRNA expression in UVB-irradiated HaCaT cells; format: cell-based, human; conditions: UVB 10 mJ/cm^2, appropriate concentration, FIG. 3, UVB alone increased
Protocol: as §1, §3
TP63 expression was increased by 10 mJ/cm^2 of UVB in human keratinocytes, HaCaT. […]

BNC2 = assay: qPCR of BNC2 mRNA expression in a-MSH-treated melanocytes (B16F10); format: cell-based, mouse; conditions: a-MSH 10 nM plus substance, 1 day, appropriate concentration; FIG. 2
Protocol: as §1, with “dark skin tone” for “spot pigmentation”, “having” for “having the”
as §2
(§4) To analyze the efficacy on changes in the mRNA expression of genes associated with dark skin tone, RT-qPCR experiment was conducted. Cells were cultured in a 37 °C/5% CO2 incubator for one day. To assess the change of KITLG expression by UVB, the medium of human keratinocytes (HaCaT) was replaced with PBS, and 30 mJ/cm^2 of UVB (312 nm) was irradiated using an RMX 3W (Vilber Lourmat) instrument. The medium was replaced with a fresh medium and cultured for one day. To assess the change in KITLG expression by treatment with substances, the cells were treated with appropriate concentrations of substances along with a fresh medium and cultured for one day. In addition, to assess the OCA2, BNC2, and RAB32 expression, melanocytes were treated with a-MSH (10 nM) and appropriate concentrations of substances in a fresh medium and cultured for 1 day. Thereafter, total RNA was obtained using AccuPrep Universal RNA Extraction Kit (Bioneer, K-3140), and cDNA was synthesized using AccuPower® RocketScript™ Cycle (Bioneer, K-2202). The expression level of each gene was analyzed by performing qPCR using synthesized cDNA and taqman probe (assay ID: OCA2-Mm00498969_m1, BNC2-Mm00556284_m1, RAB32-Mm00458960_m1, KITLG-Hs00241497_m1).

[2] = test system: mouse melanoma cells and human keratinocytes; assay: Inhibition of melanin production increased by a-MSH (dark skin tone); format: cell-based; conditions: Keratinocyte, 48 h, a-MSH 10 nM, two days
Protocol: In detail, mouse melanoma cells and human keratinocytes were seeded at […] cells/well in 6-well plates and cultured in a 37 °C/5% CO2 incubator for one day, followed by treatment with 10 nM of a-MSH. Each of media comprising appropriate concentrations and combinations of substances was added and cultured again in a 37 °C/5% CO2 incubator for two days to determine whether the substances inhibited the melanin production increased by a-MSH. Cells attached to the plates were collected in PBS and centrifuged to obtain cell pellets. The cell pellets were visually inspected and photographed. The cell pellets were dissolved in a 1 N NaOH (sodium hydroxide) solution comprising 10% dimethyl sulfoxide (DMSO) at 80 °C for 10 minutes, and placed in a 96-well plate, and absorbance at 405 nm was measured using an Epoch (Biotek) instrument. Melanin was quantified using the measured absorbance and normalized to the sample protein concentration to determine melanin concentration. The inhibition rate of melanin production of the sample was calculated as a ratio of the melanin concentration of the sample treatment group with respect to the melanin concentration increased by a-MSH treatment.
E1=(X+Y)−(XY+XZ+YZ/100)+XYZ/10000 Colby equation
E2=X+Y−(XY/100) Colby equation

RAB11FIP2 = assay: qPCR of RAB11FIP2 mRNA expression in UVB-irradiated mouse melanoma cells; format: cell-based; conditions: B16F10, UVB 30 mJ/cm^2 (312 nm), substance one day, appropriate concentration; FIG. 1; UVB alone decreased
Protocol: as §1, with “scattered dark spots on skin” for “spot pigmentation”, “having” for “having the”, “UVB exposure,” for “a-MSH,”, “UVB exposure” for “a-MSH treatment”
as §2
(§5) To analyze the efficacy on changes in the mRNA expression of genes associated with scattered dark spots on skin, mouse melanoma cells were seeded at 2*10^5 cells/well in 6-well plates and cultured in a 37 °C/5% CO2 incubator for one day. After replacing the medium with PBS, 30 mJ/cm^2 of UVB (312 nm) was irradiated using an RMX 3W (Vilber Lourmat) instrument. Substances were added to the medium at appropriate concentrations and cultured for one day under the same conditions. […] The expression level of each gene was analyzed by performing qPCR using synthesized cDNA and taqman probe (assay ID: AKAP1-Mm00501539_m1, RAB11FIP2-Mm01261268_m1, PPARGC1B-Mm00504730_m1).

AKAP1 = assay: qPCR of AKAP1 mRNA expression in UVB-irradiated mouse melanoma cells; format: cell-based; conditions: B16F10, UVB 30 mJ/cm^2 (312 nm), substance one day, appropriate concentration; FIG. 1; UVB alone increased
Protocol: as §1, with “scattered dark spots on skin” for “spot pigmentation”, “having” for “having the”, “UVB exposure,” for “a-MSH,”, “UVB exposure” for “a-MSH treatment”
as §2, §5

OCA2 = assay: qPCR of OCA2 mRNA expression in a-MSH-treated melanocytes (B16F10); format: cell-based, mouse; conditions: a-MSH 10 nM plus substance, 1 day, appropriate concentration; FIG. 2
Protocol: as §1, with “dark skin tone” for “spot pigmentation”, “having” for “having the”
as §2, §4

RAB32 = assay: qPCR of RAB32 mRNA expression in a-MSH-treated melanocytes (B16F10); format: cell-based, mouse; conditions: a-MSH 10 nM plus substance, 1 day, appropriate concentration; FIG. 2
Protocol: as §1, with “dark skin tone” for “spot pigmentation”, “having” for “having the”
as §2, §4

PPARGC1B [3] = assay: qPCR of PPARGC1B mRNA expression in UVB-irradiated mouse melanoma cells; format: cell-based; conditions: B16F10, UVB 30 mJ/cm^2 (312 nm), substance one day, appropriate concentration; FIG. 1; UVB alone decreased
Protocol: as §1, with “scattered dark spots on skin” for “spot pigmentation”, “having” for “having the”, “UVB exposure,” for “a-MSH,”, “UVB exposure” for “a-MSH treatment”
as §2
To analyze the efficacy on changes in the mRNA expression of genes associated with scattered dark spots on skin, mouse melanoma cells were seeded at 2*10^5 cells/well in 6-well plates and cultured in a 37 °C/5% CO2 incubator for one day. After replacing the medium with PBS, 30 mJ/cm^2 of UVB (312 nm) was irradiated using an RMX 3W (Vilber Lourmat) instrument. Substances were added to the medium at appropriate concentrations and cultured for one day under the same conditions. Thereafter, total RNA was obtained using AccuPrep Universal RNA Extraction Kit (Bioneer, K-3140), and cDNA was synthesized using AccuPower® RocketScript Cycle (Bioneer, K-2202). The expression level of each gene was analyzed by performing qPCR using synthesized cDNA and taqman probe (assay ID: AKAP1-Mm00501539_m1, RAB11FIP2-Mm01261268_m1, PPARGC1B-Mm00504730_m1).

[4] = test system: protein carbonylation of keratinocytes; assay: Protein carbonylation inhibition in UVA-irradiated human keratinocytes (HaCaT); format: cell-based; conditions: relative to UVA-only group, significant
Protocol: Previous studies have shown that skin dullness and yellowness are promoted by protein carbonylation of keratinocytes. Therefore, through a protein carbonylation assay, it was examined whether or not customized substances for dark skin tone may also improve skin dullness and yellowness.
Human keratinocytes (HaCaT) were seeded at 1×10^4 in black clear-bottom 96-well plates, and after 24 hours, treated with customized substances at appropriate concentrations. After another 24 hours, cells were irradiated with […] of UVA, washed with PBS, and then incubated with fluolescein-5-thiosemicabarzide in MES buffer for 1 hour at room temperature. After another washing with PBS, fluorescence was measured using a plate reader at an excitation of 492 nm and an emission of 562 nm. Furthermore, based on the UVA-only treatment group, the reduction in protein carbonylation by other effective substances was measured.

CCOC1=C(O)C(=O)O[C@@H]1[C@@H](O)CO [3-O-ethyl ascorbic acid]
change of PPARGC1B expression (PPARGC1B [1]): increased

O=C1O[C@H]([C@@H](O)CO)C(O)=C1O[C@H]1O[C@H](CO)[C@@H](O)[C@H](O)[C@H]1O [ascorbyl glucoside]
change of PPARGC1B expression (PPARGC1B [1]): increased

C[C@H]1[C@H](C)CC[C@]2(C(=O)O[C@@H]3O[C@H](CO[C@@H]4O[C@H](CO)[C@@H](O[C@@H]5O[C@@H](C)[C@H](O)[C@@H](O)[C@H]5O)[C@H](O)[C@H]4O)[C@@H](O)[C@H](O)[C@H]3O)CC[C@]3(C)C(=CC[C@@H]4[C@@]5(C)C[C@@H](O)[C@H](O)[C@@](C)(CO)[C@@H]5CC[C@]43C)[C@H]12 [asiaticoside]
change of TP63 expression (TP63): decreased

C=C[C@@](C)(/C=C/c1ccc(O)cc1)CCC=C(C)C [bakuchiol]
change of BNC2 expression (BNC2): decreasing
inhibition at 5 ppm ([2]; 5 ppm, FIG. 5, read-out: reduction of melanin production (Y, Z)): ~2.07%

CC(C)=CCC[C@](C)(O)[C@@H]1CC=C(C)CC1 [bisabolol, 6-methyl-2-(4-methylcyclohex-3-en-1-yl)hept-5-en-2-ol]
change of RAB11FIP2 expression (RAB11FIP2): increasing

NCCS [cysteamine HCl]
change of AKAP1 expression (AKAP1): decreasing

N[C@@H](CS)C(=O)O [cysteine]
change of AKAP1 expression (AKAP1): decreasing

COc1cc(/C=C/C(=O)O)ccc1O [ferulic acid, 4-hydroxy-3-methoxycinnamic acid]
change of OCA2 expression (OCA2): decreasing
change of BNC2 expression (BNC2): decreasing
change of RAB32 expression (RAB32): decreasing
inhibition at 10 ppm ([2]; 10 ppm, FIG. 5, read-out: reduction of melanin production (X)): ~5.04%

O=c1c(-c2ccc(O)cc2)coc2cc(O)cc(O)c12 [genistein]
change of OCA2 expression (OCA2): decreasing
change of BNC2 expression (BNC2): decreasing
change of RAB32 expression (RAB32): decreasing

O=C1O[C@H](CO)[C@@H](O)[C@H](O)[C@H]1O [gluconolactone, glucono-delta-lactone]
change of PPARGC1B expression (PPARGC1B [3]): increased

O=C(O)CO [glycolic acid]
change of PPARGC1B expression (PPARGC1B [3]): increased

CC(C)CCCCCCCCCCCCCCC(=O)O [isostearic acid]
change of OCA2 expression (OCA2): decreasing
inhibition at 50 ppm ([4]; Homo sapiens, light or radiation study, 50 ppm, FIG. 9, read-out: reduction in protein carbonylation): 31%

OC[C@H]1O[C@@H](Oc2cc(O)cc(/C=C/c3ccc(O)cc3)c2)[C@H](O)[C@@H](O)[C@@H]1O [polydatin, 3,4′,5-trihydroxystilbene-3-mono-D glucoside]
change of OCA2 expression (OCA2): decreasing
change of BNC2 expression (BNC2): decreasing
change of RAB32 expression (RAB32): decreasing
inhibition at 10 ppm ([2]; 10 ppm polydatin, FIG. 6, read-out: reduction of melanin production): ~23.8%

O=c1c(O)c(-c2ccc(O)c(O)c2)oc2cc(O)cc(O)c12 [quercetin]
change of OCA2 expression (OCA2): decreasing
change of RAB32 expression (RAB32): decreasing
inhibition at 20 ppm ([2]; 20 ppm quercetin, FIG. 6, read-out: reduction of melanin production): ~33.9%

CC(=O)C(=O)[O-].[Na+] [sodium pyruvate]
change of TP63 expression (TP63): decreased

NC[C@H]1CC[C@H](C(=O)O)CC1 [tranexamic acid, trans-4-(aminomethyl)cyclohexanecarboxylic acid, reference compound]
change of OCA2 expression (OCA2): decreasing

gamma oryzanol
change of OCA2 expression (OCA2): decreasing
change of RAB32 expression (RAB32): decreasing
reduction in protein carbonylation ([4]; 2.5 ppm, FIG. 9): 39%
